Measurements taken from patent US12029716B2, “Derivatives of korormicin useful as antibiotics” (Viotika Life Sciences Inc., priority 2015, dated 2024).
Values after ≈ are worked out from the molar mass of the structure shown. “Also recorded” adds a separate entry of the source. Where two headings read alike, the source gives them in different places.

Experiments:
[1] = test system: primary Vascular Smooth Muscle cells; experiment: Cell toxicity / proliferation assay, primary vascular smooth muscle cells; format: cell-based, human
Experimental: (§1) Cell Toxicity Assay was performed as follows. HeLa, HEK293 and primary VSM cells were seeded at 5×10^3 cells/well in 96-well plates and incubated with Korormicin, PEG-2 or homoserine lactones in DMEM containing 1% fetal bovine serum (FBS; Invitrogen Corp.). After 48 hours, the number of living cells was determined by a colorimetric enzyme assay, based on a cytoplasmic enzyme activity present in viable cells.
Cells were seeded at 5×10^3 cells/well in 96-well plates and incubated with C. trachomatis in DMEM containing 1% fetal bovine serum (FBS; Invitrogen Corp.). After 48 hours, the number of living cells was determined by a colorimetric enzyme assay (CellTiter 96 Cell Proliferation Assay; Promega Corporation, Madison, WI) based on a cytoplasmic enzyme activity present in viable cells. (Cory et al. Use of an aqueous soluble tetrazolium/formazan assay for cell growth assays in culture. Cancer Commun. 1991; 3:207-212). The absorbance of a formazan product in tissue culture media was measured at 500 nm using a microplate reader.

HeLa cell line = experiment: Cell toxicity assay, HeLa cells; format: cell-based, human; conditions: HeLa, concentrations of up to 50 μM
Experimental: as §1

HEK293 cells = experiment: Cell toxicity assay, HEK293 cells; format: cell-based, human; conditions: HEK293, concentrations of up to 50 μM
Experimental: as §1

Chlamydia trachomatis = experiment: C. trachomatis infection of HeLa cells (chlamydial inclusions, immunocytochemistry); format: cell-based; conditions: for MCC2, Minimal Chlamydicidal Concentration: after 2 passages with treatment
Experimental: Chlamydia trachomatis (C. trachomatis) propagation and treatment were carried out as follows. C. trachomatis was propagated in HeLa cells. The titer of C. trachomatis was determined in cyclohexamide-treated HeLa cells, and concentrations used were expressed as inclusion forming units (IFU) per mL.
Assessment of the level of infection was determined as follows. HeLa cells were seeded on glass coverslips in 24-well plates at 3×10^4 cells/well and inoculated with C. trachomatis and then treated with antibiotic (or other compounds of interest). After 48 hours, the infected cells were fixed with 100% methanol and then incubated with anti-Chlamydia monoclonal antibody. Inclusion bodies were visualized by staining with FITC-conjugated secondary antibody and DAPI as counterstaining. The samples were examined by a fluorescence microscopy. Number of inclusions was calculated per 100 cells.
Assessment of antichlamydial activity of Korormicin (Scheme shown in FIG. 1) and PEG-2 (Scheme shown in FIG. 2) were performed as follows. Cells were infected with C. trachomatis and treated with different concentrations of antibiotic of choice. After 48 h of C. trachomatis was collected (P1) and used to infect fresh cells. Subsequent collections of C. trachomatis were used to obtain P2, P3, P4 and P5 stocks of C. trachomatis. Dilution of C. trachomatis used to infect cells after treatment with PEG-2 had to be minimized in order to visualize inclusions. Last passage collection of C. trachomatis (P5) of Korormicin treatment and all collected of passages of C. trachomatis treated with PEG-2 were used to establish infectivity of treated Chlamydia (Scheme shown in FIG. 3).
For MIC50 (Minimal Concentration of the antibiotic that inhibits formation of chlamydial inclusions on 50%) determination HeLa cells were grown in 24-well or 96 well plates overnight prior to chlamydial inoculation. Elementary bodies were applied to the cells in small volume of SPG (0.22 M sucrose, 8.6 mM Na2HPO4, 3.8 mM KH2PO4, 5 mM glutamic acid, 0.2 μm-filtered, pH 7.4) and after 2 hours of incubation unattached elementary bodies were removed and infected cells were treated with different concentration of antibiotics in Dulbecco's modified Eagle's medium (DMEM, Invitrogen) with 5% fetal bovine serum (FBS, Invitrogen) in the presence of cycloheximide (1.0 μg/ml). After 42 h inclusions were visualized by immunocytochemistry.
To determent chlamydicidal effect of Korormicin (Scheme 1) and PEG-2 (Scheme 2) Hela cells were infected with C. trachomatis and treated with different concentrations of antibiotics. After 48 h of C. trachomatis was collected (P1) and used to infect fresh cells. Subsequent collections of C. trachomatis were used to obtain P2, P3, P4 and P5 stocks of C. trachomatis. Dilution of C. trachomatis used to infect cells after treatment with PEG-2 had to be minimized in order to visualize inclusions. (See Scheme 2 below). Last passage collection of C. trachomatis (P5) of Korormicin treatment and all collected of passages of C. trachomatis treated with PEG-2 were used to establish infectivity of treated C. trachomatis. Minimal chlamydicidal concentration (MCC2) for Korormicin, PEG-2 and PEG-2S was calculated after 2 passages of infection with treatment and reflect inhibition of infection for more than 90%. In all experiments inclusions were visualized by immunocytochemistry.
Cells were seeded on glass coverslips in 24-well plates (2-4×10^4 cells/well) or on glass-bottom 96 well plates (10^4 cells/well), and after overnight inoculated with C. trachomatis. After 42 hours, the infected cells were fixed with 90% acetone (or 100% methanol in case of 96 well plates) and then incubated with anti-Chlamydia antibody (Thermo Fisher Scientific). Alexa Fluor 488-conjugated anti-rabbit IgG (Molecular Probes) was used as secondary antibody. DAPI staining solution (300 nM) was added to the coverslips to identify nuclei. […]

[2] = test system: HeLa cells infected with C. trachomatis; experiment: Intracellular acidification of HeLa cells infected with C. trachomatis; format: cell-based, human
Source text: The mechanism of action of PEG-2 was also investigated by monitoring intracellular acidification of infected cells treated with PEG-2. If PEG-2 is working through the inhibition of Na^+-NQR and a sodium motive force, then it would be expected to have an effect on intracellular Na^+ and H^+ concentrations within infected cells. HeLa cells were infected with C. trachomatis and intracellular acidification was monitored with fluorescent indicator dyes.

SMILES: CCCCCCC/C=C/C=C\[C@H](O)CC(=O)NC1=C[C@](C)(CC)OC1=O [PEG-2]
- toxicity to primary cells (in words) ([1]; primary Vascular Smooth Muscle cells): low cytotoxicity; also recorded: non-toxic
- toxic effects ([1]; primary Vascular Smooth Muscle cells, concentrations of up to 50 μM): no toxic effects
- toxic effects on primary cell cultures (VSMC) ([1]; up to 20 μM): no toxic effects
- toxic effects (HeLa cell line): no toxic effects
- toxic effects (HEK293 cells): no toxic effects
- efficacy against C. trachomatis infection (in words) (Chlamydia trachomatis): effective
- decrease of infectivity (number of chlamydial inclusions in the next passage) (Chlamydia trachomatis; 1st treatment, 15 μM): ~5 fold
- number of inclusions, of control (Chlamydia trachomatis; 5 consecutive treatments, 15 μM): 0.01%
- MCC2, Minimal Chlamydicidal Concentration (Chlamydia trachomatis): 5.45 µg/mL
- MCC2, Minimal Chlamydicidal Concentration (Chlamydia trachomatis; inhibition of infection for more than 90%): 15 µM
- number of detectable inclusions lower (Chlamydia trachomatis; after 5 consecutive treatments, 15 μM): 10,000 times
- MIC501, Minimal Inhibitory Concentration after the treatment (Chlamydia trachomatis; first treatment): 3.63 mg/L (≈ 9.99 µM)
- size of chlamydial inclusions (Chlamydia trachomatis; fluorescence microscopy): noticeably smaller
- IC50 (Chlamydia trachomatis; read-out: MIC501, Minimal Inhibitory Concentration after the treatment, first treatment, 50% inhibition of inclusion formation): 10 µM
- IC50 (Chlamydia trachomatis; read-out: MIC502, Minimal Inhibitory Concentration after the second treatment, second treatment): 4 µM
- MIC502, Minimal Inhibitory Concentration after the second treatment (Chlamydia trachomatis; second treatment): 1.45 mg/L (≈ 3.99 µM)
- delay of the initial C. trachomatis-induced acidification [2]: at least 2 hours
- effect on the following acidification [2]: diminishes the following acidification
